Patent US20230220047A1, “PEPTIDES FOR TREATMENT OF SEPSIS AND CANCER” (NORWEGIAN UNIVERSITY OF SCIENCE AND TECHNOLOGY (NTNU), priority 2020, published 2023)

Legend:
primary human monocytes = experiment: Confocal analysis of E. coli particle uptake by primary human monocytes; assay type: cell-based; conditions: 3 μM, similar extent as P7-Pen
Experimental: Cells were pre-incubated with Pen or P7-Pen peptides, followed by addition of Alexa Fluor 488-labeled bioparticles for the times indicated (15, 30 or 45 min). Fluorescent bacteria particles were counted by spot-detection in Bitplane Imaris imaging software and used to calculate the number of particles per cell. […] Pre-incubation with 3 μM cytochalasin D (CytoD, and inhibitor of actin polymerization) inhibited uptake of E. coli to a similar extent as P7-Pen.
THP-1 cells, THP-1^cherry cells or human PBMC were seeded in 24-well glass-bottom plates (MatTek Corporation), 125,000 cells/well. The THP-1 cells were differentiated into macrophages with 60 ng/ml PMA for 72 h and thereafter rested for 48 h, whereas the PBMC were used the day after isolation. The P7-penatratin peptide or control peptide was added to the cells 30 min before stimulation at 15 μM concentration. If used, 3 μM cytochalasin D (CytoD) was added simultaneously. […] A spot detection mode in the Bitplan Imaris software was used to define individual phagosomes and cells were counted manually. […] Fluorescence voxel intensity of TRAM^cherry at the phagosome is also presented. Statistical significance was calculated in GraphPad Prism by One-way ANOVA Kruskal-Wallis multiple comparison test. […]

THP-1 cells = experiment: LDH cytotoxicity assay in THP-1 cells; conditions: CPP screen, 15 μM, 30 min pre-treatment, LPS 100 ng/ml
Experimental: For every assay, separate wells were seeded for the required controls (Spontaneous LDH Release Controls and Maximum LDH Release Control) with the same amount of cells as used for peptide treatments. All supernatants were analysed in triplicate with the average value of technical replicates taken into calculations.
THP-1 cells were pre-treated with increasing concentrations of P7-Arg11 and control peptide Arg11 for 1 h (FIG. 3).

TLR4 [1] = experiment: qPCR of TLR4-mediated cytokine expression in B6 immortalised murine macrophages; assay type: cell-based, mouse; conditions: 10 μM, 1 h pre-treatment, LPS 100 ng/ml
Experimental: Cells were pre-treated with 10 μM peptides in cell culture media for 1 h, and stimulated with LPS (100 ng/ml) for increasing lengths of time.
Immortalized bone-derived-macrophages (iBMDM) from wild type, Tram−/− or TIr4−/− C57BL/6 mice were maintained at 37° C. and 5% CO2 in DMEM supplemented with 10% FCS.
(§1) Total RNA was isolated from the cells using Qiazol reagent #79306 from QIAGEN, and chloroform extraction followed by purification on RNeasy Mini columns with DNAse digestion (Qiagen). cDNA was prepared using the Maxima First Strand cDNA Synthesis Kit for quantitative real-time polymerase chain reaction (RT-qPCR) (Thermo Fisher Scientific) according to the manufacturer's protocol. qPCR was performed using the PerfeCTa qPCR FastMix (Quanta Biosciences) in replicates and cycled in a StepOnePlus™ Real-Time PCR cycler. The following TaqMan® Gene Expression Assays (Applied Biosystems®) were used: IFNβ (Hs01077958_s1), TNF (Hs00174128_m1), TBP (Hs00427620_m1), CXCL10 (Hs01124251_g1), IL-6 (Hs00174131_m1) and IL-1β (Hs01555410_m1), for human cells; Ifnβ (Mm00439552_s1), Tnf (Mm00443258_m1), Tbp (Mm01277042_m1) and II-1β (Mm00434228_m1), for mouse cells. No RT controls were negative. The level of TBP mRNA was used for normalisation and results presented as relative expression compared to the control untreated sample. Relative expression was calculated using Pfaffl's mathematical model (Pfaffl, Nucleic Acids Research 29(9): e45, 2001). Results are presented as the mean and SD expression fold change for biological replicates relative to non-stimulated cells. Statistical significance was evaluated in GraphPad Prizm 5.03. Data distribution was assumed to be normal but this was not formally tested. The difference between the two groups was determined by two-tailed t test.
We proceeded with cellular assays to address the effect of peptide pre-treatment on TLR4-mediated cytokine expression in B6 immortalised murine macrophages (FIG. 13). Tested peptides had no cytotoxic effect on B6 murine macrophages (FIG. 13A).

[2] = system: ANBL-6 multiple myeloma cells; experiment: CellTiter-Glo cell viability assay, ANBL-6; assay type: cell-based; conditions: 20 μM, 48 h
Experimental: Minor effects on the proliferation of the IH-1 and RPMI 8226 cell lines are seen. Cells were seeded at the level shown (left-hand bar of each set) then incubated in medium containing water, 10 μM penetratin or 10 μM P7-A4-Pen for 48 hr (except for INA-6 cells, which were incubated with 12.5 μM penetratin or 12.5 μM P7-A4-Pen). The number of viable cells was detected based on quantitation of ATP by luminescent signal in correlation to a standard curve prepared for each cell line. Results are based on 3-5 biological replicates for each condition, error bars show standard deviation of mean.
Cells were seeded and then incubated in growth medium alone or supplemented with water, DMSO, 15 μM penetratin or 15 μM investigational peptide. The growth medium only and H2O—, DMSO- and penetratin-supplemented cultures constituted controls.
The solid horizontal lines show the amount of cells originally seeded. In (A) ANBL-6 cells were seeded at a level of 10,000 cells/well, then incubated in medium supplemented with water, the control peptide C3A-Pen, P7-Pen, P7-A4-Pen, P7-N4-Pen or P7-K2-Pen for 48 hours. The peptides were included at concentrations of 5, 10, 12.5, 15, 20 or 30 μM. Cells were counted at 48 hours. In (B), ANBL-6 cells were seeded at a level of 5000 cells/well, then incubated in medium supplemented with water, P6-Pen, P-P6-Pen, P7-D4-Pen or P7-A4-Pen for 48 hours. Peptides were included at concentrations of 5, 10 or 20 μM. Cells were counted at 48 hours. […] Results are based on 3 biological replicates, error bars show standard deviation of mean.
Multiple myeloma cells JJN-3 (DSMZ (Germany) no. ACC 541), ANBL-6 (Cellosaurus accession number CVCL_5425, obtained from Dr Diane Jelinek, Mayo Clinic, Rochester, Minn.), INA-6 (Cellosaurus accession number CVCL_5209, obtained from Dr M. Gramatzki, University of Erlangen-Nurnberg, Erlangen, Germany), RPMI-8226 (ATCC CCL-155), and IH-1 (Cellosaurus accession number CVCL_WZ44, established from the pleural effusion of a myeloma patient by Myeloma research group, IKOM, NTNU, Trondheim, Norway) were grown in RPMI-1640 (Sigma-Aldrich Norway, Oslo, Norway) supplemented with 100 nM penicillin/streptomycin and 10% FCS, and for ANBL-6, IH-1 and INA-6 cells 2 ng/ml recombinant IL-6 (Gibco, Thermo Fisher Scientific, Waltham, Mass., USA). Murine multiple myeloma Vk*MYC cells were obtained from M.D. Leif Bergsagel (Mayo Clinic, Richester, Minn., USA) and cultured in RPMI-1640 supplemented with 2% human serum (B^+, The blood bank, St Olav's Hospital, Trondheim, Norway), 100 nM penicillin/streptomycin, L-Glutamine (2 mM) and recombinant IL-6 (1 ng/ml). HEK293T (ATCC CRL-3216) were cultured in DMEM with 10% FCS. THP-1 TRAM knockout (KO) and TLR4 KO cell lines, and matching lentivirally transduced control cell lines, were differentiated in the same way as wild type (WT) THP-1. TRAM KO THP-1 cell line is described in Yurchenko et al. (supra).
To evaluate the potential impact of the P7 peptide on proliferation of tumour cells of lymphoid origin, we performed a CellTiter-Glo Luminescent Cell Viability Assay to address proliferation of several multiple myeloma (MM) cell lines. For the assay, cells were incubated for 48 h in respective media containing either solvent (water), 10 μM control peptide (Pen) or the SLAMF1-derived peptide P7-A4-Pen for 48 h (FIG. 32) (with the exception of the INA-6 cells which were incubated with 12.5 μM control peptide or P7-A4-Pen). […] This effect could be mediated by P7-A4-Pen-induced inhibition of signalling pathways that are crucial for driving proliferation and/or survival of MM tumour cells.

SLAMF1-TRAM interaction = molecular target: T1, SLAMF1-TRAM interaction (Homo sapiens, UniProt Q86XR7); experiment: Co-precipitation of SLAMF1 and TRAM^Flag in the presence of ECFP-tagged peptides; assay type: binding; conditions: N-terminal ECFP-tagged peptides, HEK-293T lysates, anti-Flag IP
T1 construct: expressed in transfected cells; host or cells: HEK-293T
Excerpt: (A) Western blot analysis of SLAMF1 and TRAM^Flag co-precipitated in the presence of CFP-tagged peptides. TRAM^Flag was precipitated from cell lysates on agarose beads and distributed across 15 tubes. […] Unbound proteins/peptides were removed by a washing step, and pecipitates analysed by WB (anti-Flag IPs). Reduced SLAMF1 binding to TRAM indicates inhibition of the TRAM/SLAMF1 interaction by the peptide. (B) Sequences of the peptides that were expressed as ECFP-tagged proteins (N-terminal ECFP). Peptides 4 and 5 are not shown and were not pursued.
HEK293T cells expressing Flag-tagged proteins were lysed using 1×lysis buffer (150 mM NaCl, 50 mM TrisHCl (pH 8.0), 1 mM EDTA, 1% NP40), supplemented with EDTA-free Complete Mini protease Inhibitor Cocktail Tablets and PhosSTOP phosphatase inhibitor cocktail from Roche, 50 mM NaF and 2 mM […] (Sigma). IPs were carried out by rotation of cell lysates at 4° C. for 2 h with anti-flag (M2) agarose (Sigma). Beads were washed 5 times with lysis buffer and heated for 5 min with 1×NuPAGE® LDS Sample Buffer (Thermo Fisher Scientific) before analysis of precipitates by Western blotting. […]
Inhibition of the TRAM-SLAMF1 interaction using SLAMF1-derived peptides was tested. For the first line of experiments, SLAMF1-derived peptides were co-expressed as N-terminal ECFP-tagged proteins together with SLAMF1 and TRAM^FLAG constructs in HEK-293T cells.

STAT1 = experiment: Western blot of STAT1 phosphorylation in LPS-stimulated THP-1 cells; assay type: cell-based, human; conditions: 15 μM, compared to control peptide
Experimental: Protein pellets were dissolved by heating protein pellets for 10 min at 95° C. in buffer containing 4 M urea, 1 SDS (Sigma) and NuPAGE® LDS Sample Buffer (4×) (Thermo Fisher Scientific). Otherwise, lysates were made using 1× RIPA lysis buffer (150 mM NaCl, 50 mM TrisHCl (pH 7.5), 1% Triton X100, 5 mM EDTA, protease inhibitors, phosphatase inhibitors). For Western blot analysis we used pre-cast protein gels NuPAGE™ Novex™ and iBlot Transfer Stacks iBlot Gel Transfer Device (Thermo Fisher Scientific). Proteins were transferred to the membrane by dry-blotting using iBlot® 2 NC Regular/Mini Stacks (Life Technologies) in the iBlot 2 Dry Blotting System (Life Technologies). After secondary antibody incubation, membranes were washed and incubated with HRP substrate solution (SuperSignal™ West Femto Maximum Sensitivity Substrate (Thermo Fisher Scientific)). Images were taken using Odyssey® Fc (LI-CORE). Quantification graphs were generated by the analysis of signal intensities for protein bands (protein of interest and endogenous loading control—β-tubulin from the same membrane) using Odyssey software (LI-CORE). Data were normalised to the expression levels of β-tubulin and presented as a relative fold change to the control sample.

TLR4 [3] = experiment: qPCR of LPS-mediated cytokine mRNA expression in THP-1 macrophages; assay type: cell-based, human; conditions: 15 μM
Experimental: SW480 (ATCC CCL-228) and Jurkat (ATCC Clone E6-1; TIB-152) cells were cultured in RPMI 1640 (Sigma-Aldrich, Schnelldorf, Germany) supplemented with 10% heat-inactivated FCS, penicillin/streptomycin (Life Technologies) and 20 mM L-Glutamine. THP-1 cells (ATCC TIB-202) were cultured in RPMI-1640 (high-glucose, ATCC) supplemented with 10% heat inactivated foetal calf serum (FCS), 100 nM penicillin/streptomycin and 5 μM β-mercaptoethanol (Sigma). THP-1 cells were differentiated with 60 ng/ml phorbol 12-myristate 13-acetate (PMA, Sigma) for 72 h, followed by 24 or 48 h in medium without PMA.
as §1

T1 sequence (Q86XR7 whole entry): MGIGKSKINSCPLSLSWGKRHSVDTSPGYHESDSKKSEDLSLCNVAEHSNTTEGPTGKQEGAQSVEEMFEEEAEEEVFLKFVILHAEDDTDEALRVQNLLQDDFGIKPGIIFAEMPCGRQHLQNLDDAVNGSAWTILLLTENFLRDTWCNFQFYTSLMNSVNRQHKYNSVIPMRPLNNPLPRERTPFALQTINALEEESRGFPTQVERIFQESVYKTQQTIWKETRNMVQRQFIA

## C=C1[C@@H](C)[C@H]2[C@H](Cc3ccccc3)NC(=O)[C@]23[C@H](OC(C)=O)/C=C/[C@@](C)(O)C(=O)[C@@H](C)C/C=C/[C@H]3[C@@H]1O [cytochalasin D, reference compound]
Primary human monocytes
  uptake of E. coli: inhibited

## Ac-ITVYASVTLTGKLALKLALKALKAALKLA-NH2 [Peptide P7-KLA]
THP-1 cells
  reduction of LPS-mediated toxicity (LDH assay): most effective
TLR4 [1]
  TLR4-mediated Ifnβ, Tnf and Il-1β mRNA expression: strongly inhibited

## P6: SEQ ID NO: 2; amino acid sequence of SLAMF1 positions 324-333 (ITVYASVTLP; listed as Homo sapiens) [Peptide P6]
[2]
  anti-proliferative activity at the highest tested concentration: moderate anti-proliferative
SLAMF1-TRAM interaction
  inhibitory effect on SLAMF1-TRAM co-precipitation: highest efficacy

## TNSITVYASVTLTESGRRRRRRRRRRR (P3-Arg11) [Peptide P3-Arg11]
STAT1
  phosphorylation of STAT1 upon LPS stimulation: no effect
TLR4 [3]
  LPS-mediated cytokine mRNA expression: not effective
